# Target: T1, CDK4/Cyclin D1 (Homo sapiens, UniProt P11802)
# T1 construct: made in house; host or cells: insect cells (crude cell lysate)
# Assay: Cyclin D1/cdk4 phosphoRb in vitro kinase assay
# Type: biochemical
# Conditions: for IC50: insect cell lysates expressing cyclin D1 and cdk4, GST-Rb substrate, 32P-ATP, read-out: IC50, inhibition of CDK4/Cyclin D1; for relative potency of inhibition of CDK4/cyclin D1: compared with Compound 4 and Compound 1 (esters or ethers)
# From the text: The efficacy of a compound in inhibiting the activity of cyclin-dependent kinases can be determined by several methods well known in the art, such as a kinase assay, as described in the Examples section herein, or as described in Losiewics, M. D., et al. (1994) Biochem. Biophys. Res. Commun. 201, 589. Thus, a complex containing the cyclin-dependent kinase and a cyclin is first isolated either from a recombinant source, or immunoprecipitated from cells synchronized at the stage at which a particular cyclin-dependent kinase is present at high levels in the cell. The immunoprecipitates are then incubated in the presence of radiolabelled ATP and an appropriate substrate with various amounts of the inhibitor. The amount of radioactivity associated with the substrate protein can then be determined by various methods well known in the art. The substrate used for the kinase assay will depend on the specific kinase. Typically, histone H1 or CDK1 S1 is used as a substrate for the CDC2 kinase and the retinoblastoma protein is used as a substrate in a kinase assay for CDK4. The kinases, cyclins, and substrates used in the in vitro kinase assay can be proteins isolated from mammalian cells, or alternatively, they can be proteins produced recombinantly, such as in E. Coli.
# This example is an illustration of the cyclin-dependent kinase inhibitory activity of the compounds of the invention. The kinase inhibitory activity of several compounds of the invention was determined using an in vitro kinase assay in which the kinase activity of the CDK4 kinase was measured using a Cyclin D1/cdk4 phosphoRb Assay. Briefly, the assay employs cell lysates from insect cells expressing cyclin D1 and cdk4 kinase. The cyclin/cdk lysate is combined in a microtitre-type plate along with a kinase compatible buffer, ^32 P-labeled ATP, a GST-Rb fusion protein, and the test agent. The kinase reaction is allowed to proceed with the radiolabeled ATP, then effectively stopped by the addition of a large excess of unlabeled ATP. The GST-Rb protein is sequestered on a GSH-Sepharose bead suspension, washed, resuspended in scintilant, and ^32 P activity detected in a scintillation counter. The concentration of compound at which 50% of the kinase activity was blocked (IC50) was calculated for each compound.
# T1 sequence (P11802 whole entry, species assumed): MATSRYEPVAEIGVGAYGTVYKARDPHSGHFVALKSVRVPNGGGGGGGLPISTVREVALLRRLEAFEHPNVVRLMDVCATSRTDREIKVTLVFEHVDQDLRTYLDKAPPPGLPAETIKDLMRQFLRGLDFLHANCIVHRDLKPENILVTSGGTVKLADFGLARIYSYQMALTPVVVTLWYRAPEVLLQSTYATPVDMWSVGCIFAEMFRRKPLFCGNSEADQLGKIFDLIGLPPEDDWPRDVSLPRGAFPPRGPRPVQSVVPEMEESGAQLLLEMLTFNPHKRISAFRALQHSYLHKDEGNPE
# T1 sequence (P24385 whole entry partner, species assumed): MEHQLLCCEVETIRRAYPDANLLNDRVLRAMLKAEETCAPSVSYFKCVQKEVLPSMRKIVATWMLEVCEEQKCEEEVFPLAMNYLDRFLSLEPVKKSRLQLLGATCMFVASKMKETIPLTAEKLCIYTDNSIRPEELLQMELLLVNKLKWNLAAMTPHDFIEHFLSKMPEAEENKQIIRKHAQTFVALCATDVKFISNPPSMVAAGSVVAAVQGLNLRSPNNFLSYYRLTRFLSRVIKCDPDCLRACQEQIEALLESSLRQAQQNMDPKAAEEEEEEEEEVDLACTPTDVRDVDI
SMILES,IC50,relative potency of inhibition of CDK4/cyclin D1
CN1CC[C@H](O)[C@H](c2c(O)cc(O)c3c(=O)cc(-c4ccccc4Cl)oc23)C1 (relative stereo) [Compound 14],< 150 µM,
COc1cc(OC)c2c(=O)cc(-c3ccccc3Cl)oc2c1[C@@H]1CN(C)CC[C@@H]1O (relative stereo) [Compound 13],< 250 µM,
CN1CCC(c2c(O)cc(O)c3c(=O)cc(-c4ccccc4Cl)oc23)C(=O)C1 (centres unmarked) [Compound 5],< 50 µM,much more potent inhibitors of CDK4/cyclin D1
CN1CC=C(c2c(O)cc(O)c3c(=O)cc(-c4ccccc4Cl)oc23)CC1 [Compound 3],< 50 µM,much more potent inhibitors of CDK4/cyclin D1
COc1cc(OC)c2c(=O)cc(-c3ccccc3Cl)oc2c1C1=CCN(C)CC1 [Compound 1],< 250 µM,
COc1cc(OC)c2c(=O)cc(-c3ccccc3Cl)oc2c1C1CCN(C)CC1=O (centres unmarked) [Compound 4],230 µM,
